Data reported in ChEMBL document CHEMBL5034028, “Design, synthesis and biological evaluation of tyrosinase-targeting PROTACs” (Eur J Med Chem, 2021).
Values after ≈ are worked out from the molar mass of the structure shown. Active and inactive are the calls of the source. No cut-off for these calls is given here.

Experiments:
[1] = biological target: T1, Protein cereblon/Tyrosinase (Homo sapiens) (UniProt P14679+Q96SW2); assay: Protac activity at CRBN E3 ubiquitin ligase/tyrosinase in human A-375 cells assessed as induction of tyrosinase degradation at 100 uM measured after 24 hrs by immunoblotting analysis; assay type: cell-based
T1 sequence (Q96SW2 whole entry, looked up, one chain of several): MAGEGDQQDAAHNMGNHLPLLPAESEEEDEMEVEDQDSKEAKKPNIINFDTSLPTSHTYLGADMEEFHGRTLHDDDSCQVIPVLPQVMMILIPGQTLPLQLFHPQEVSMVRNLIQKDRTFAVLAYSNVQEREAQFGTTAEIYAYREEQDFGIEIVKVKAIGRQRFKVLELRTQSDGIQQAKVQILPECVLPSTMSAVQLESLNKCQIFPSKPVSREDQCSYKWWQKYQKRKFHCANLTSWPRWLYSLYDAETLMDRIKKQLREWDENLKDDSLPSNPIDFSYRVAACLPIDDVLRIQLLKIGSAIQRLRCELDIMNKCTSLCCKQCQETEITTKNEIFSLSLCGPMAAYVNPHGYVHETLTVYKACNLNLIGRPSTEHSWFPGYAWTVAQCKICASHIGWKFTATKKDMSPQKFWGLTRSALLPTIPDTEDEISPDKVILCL

Danio rerio [2] = species: Danio rerio; assay: Inhibition of melanin production in zebra fish assessed reduction in melanin level in eyes at 25 to 100 uM measured 48 hrs post fertilization; assay type: functional, organism-based; conditions: dose 25-100 µM
Mushroom tyrosinase = Mushroom tyrosinase (Agaricus bisporus, UniProt O42713+Q00024+C7FF04+C7FF05); assay: Binding affinity to mushroom tyrosinase assessed as dissociation constant
A-375 [3] = assay: Inhibition of melanin production in human A-375 cells assessed reduction in melanin level at 100 uM measured after 24 hrs by UV-visible absorption spectrophotometric method; assay type: functional, cell-based
[4] = biological target: T1, Protein cereblon/Tyrosinase (Homo sapiens); assay: Protac activity at CRBN E3 ubiquitin ligase/tyrosinase in human A-375 cells assessed as induction of tyrosinase degradation at 50 uM measured after 24 hrs by immunoblotting analysis; assay type: cell-based
Danio rerio [5] = species: Danio rerio; assay: Inhibition of melanin production in zebra fish assessed reduction in melanin level in abdomen at 25 to 100 uM measured 48 hrs post fertilization; assay type: functional, organism-based; conditions: dose 25-100 µM
Danio rerio [6] = species: Danio rerio; assay: Inhibition of melanin production in zebra fish assessed reduction in melanin level in back at 25 to 100 uM measured 48 hrs post fertilization; assay type: functional, organism-based; conditions: dose 25-100 µM
Danio rerio [7] = species: Danio rerio; assay: Inhibition of melanin production in zebra fish assessed reduction in melanin level in tail at 25 to 100 uM measured 48 hrs post fertilization; assay type: functional, organism-based; conditions: dose 25-100 µM
[8] = biological target: T1, Protein cereblon/Tyrosinase (Homo sapiens); assay: Protac activity at CRBN E3 ubiquitin ligase/tyrosinase in human A375 cells assessed as induction of tyrosinase degradation at 50 uM measured after 24 hrs by immunoblotting analysis relative to control; assay type: cell-based; conditions: A-375
[9] = biological target: Beta-1 adrenergic receptor (Homo sapiens) (UniProt P08588); assay: Induction of degradation in adrenergic receptor beta1 in human A-375 cells at 100 uM measured after 24 hrs by immunoblotting analysis; assay type: cell-based
Sequence of Beta-1 adrenergic receptor (Homo sapiens) (P08588 whole entry, looked up): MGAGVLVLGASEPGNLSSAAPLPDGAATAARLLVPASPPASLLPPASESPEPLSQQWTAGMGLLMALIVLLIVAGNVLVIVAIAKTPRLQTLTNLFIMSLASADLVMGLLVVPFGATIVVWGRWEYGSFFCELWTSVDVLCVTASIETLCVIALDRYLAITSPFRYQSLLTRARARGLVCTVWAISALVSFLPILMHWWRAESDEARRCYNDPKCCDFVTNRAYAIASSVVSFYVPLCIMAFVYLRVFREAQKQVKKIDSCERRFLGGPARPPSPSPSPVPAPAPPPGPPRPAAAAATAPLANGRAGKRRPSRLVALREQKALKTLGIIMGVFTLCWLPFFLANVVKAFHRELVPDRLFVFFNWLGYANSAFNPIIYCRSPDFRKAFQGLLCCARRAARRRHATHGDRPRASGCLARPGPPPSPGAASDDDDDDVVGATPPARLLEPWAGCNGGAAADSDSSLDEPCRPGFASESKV

[10] = biological target: D(1A) dopamine receptor (Homo sapiens) (UniProt P21728); assay: Induction of degradation in dopamine receptor D1 in human A-375 cells at 100 uM measured after 24 hrs by immunoblotting analysis; assay type: cell-based
Sequence of D(1A) dopamine receptor (Homo sapiens) (P21728 whole entry): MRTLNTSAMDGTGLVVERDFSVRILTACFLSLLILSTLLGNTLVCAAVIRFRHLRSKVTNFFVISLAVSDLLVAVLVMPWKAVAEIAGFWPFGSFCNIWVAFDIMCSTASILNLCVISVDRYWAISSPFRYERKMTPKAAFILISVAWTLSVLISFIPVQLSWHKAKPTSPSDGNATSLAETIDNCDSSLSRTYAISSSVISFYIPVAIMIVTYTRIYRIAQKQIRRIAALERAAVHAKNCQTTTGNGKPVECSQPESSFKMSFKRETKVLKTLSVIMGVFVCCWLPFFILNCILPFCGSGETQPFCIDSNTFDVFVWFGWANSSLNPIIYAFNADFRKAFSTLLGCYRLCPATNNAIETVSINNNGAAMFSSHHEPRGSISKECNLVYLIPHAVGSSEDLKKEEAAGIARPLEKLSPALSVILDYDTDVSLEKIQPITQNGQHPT

[11] = biological target: Adrenergic receptor alpha-1 (Homo sapiens) (UniProt P35348+P25100+P35368); assay: Induction of degradation in adrenergic receptor alpha1 in human A-375 cells at 100 uM measured after 24 hrs by immunoblotting analysis; assay type: cell-based
[12] = Aqueous solubility of compound; assay type: physicochemical; conditions: aqueous (not further specified)
Tyrosinase = biological target: T2, Tyrosinase (Homo sapiens, UniProt P14679); assay: Inhibition of human tyrosinase
T2 sequence (P14679 whole entry): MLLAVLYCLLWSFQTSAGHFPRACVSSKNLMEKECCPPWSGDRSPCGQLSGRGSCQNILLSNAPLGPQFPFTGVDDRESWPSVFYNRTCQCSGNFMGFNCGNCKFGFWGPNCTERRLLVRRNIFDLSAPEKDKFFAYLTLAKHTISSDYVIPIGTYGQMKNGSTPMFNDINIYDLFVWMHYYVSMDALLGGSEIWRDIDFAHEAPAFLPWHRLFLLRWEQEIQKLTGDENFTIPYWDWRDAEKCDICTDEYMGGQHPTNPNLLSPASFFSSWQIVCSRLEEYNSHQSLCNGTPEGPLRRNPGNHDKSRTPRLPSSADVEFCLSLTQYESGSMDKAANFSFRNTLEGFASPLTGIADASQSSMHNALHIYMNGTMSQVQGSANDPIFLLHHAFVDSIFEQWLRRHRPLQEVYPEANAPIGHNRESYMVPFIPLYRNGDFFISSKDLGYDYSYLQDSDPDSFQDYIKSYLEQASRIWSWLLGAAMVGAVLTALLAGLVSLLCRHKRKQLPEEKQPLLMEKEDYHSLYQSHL

[13] = biological target: T3, Tyrosinase (Homo sapiens) (UniProt P14679); assay: Induction of human tyrosinase degradation in human A-375 cells assessed as downregulation of tyrosinase at 100 uM pretreated with ubiquitin activating enzyme inhibitor […] for 30 mins followed by compound addition and measured after 24 hrs by immunoblotting analysis; assay type: cell-based
T3 sequence (whole entry): T2 sequence (P14679 whole entry)

Danio rerio [14] = species: Danio rerio; assay: Inhibition of melanin production in zebra fish assessed reduction in melanin level in eyes at 25 to 100 uM measured 48 hrs post fertilization relative to 100 uM L-Dopa; assay type: functional; conditions: dose 25-100 µM
A-375 [15] = assay: Cytotoxicity against human A-375 cells assessed as reduction in cell viability at up to 400 uM measured after 72 hrs by CCK8 assay; assay type: cell-based; conditions: a-375, 72 h
[16] = Toxicity in zebrafish embryo assessed as effect on morphology at 25 to 100 uM measured 48 hrs post fertilization; assay type: tissue-based, Danio rerio; conditions: in vivo, dose 25-100 µM
[17] = n-Octanol/water partition coefficient, logD of the compound; assay type: physicochemical
Danio rerio [18] = species: Danio rerio; assay: Inhibition of melanin production in zebra fish assessed depigmentation effect at 25 to 100 uM measured 96 hrs post fertilization relative to control; assay type: functional; set-up: scale not given: the % may be the effect or the level left; conditions: dose 25-100 µM
[19] = biological target: T3, Tyrosinase (Homo sapiens); assay: Induction of human tyrosinase degradation in human A-375 cells assessed as downregulation of tyrosinase at 100 uM pretreated with proteasome inhibitor, MG132 for 30 mins followed by compound addition and measured after 24 hrs by immunoblotting analysis; assay type: cell-based
[20] = Cytotoxicity against HEK293 cells assessed as reduction in cell viability measured after 72 hrs by CCK8 assay; assay type: cell-based; conditions: human
A-375 [21] = assay: Inhibition of melanin production in human A-375 cells assessed reduction in melanin level measured after 24 hrs by UV-visible absorption spectrophotometric method; assay type: functional, cell-based
[22] = biological target: T1, Protein cereblon/Tyrosinase (Homo sapiens); assay: Protac activity at CRBN E3 ubiquitin ligase/tyrosinase in human A-375 cells assessed as induction of tyrosinase degradation at 100 uM measured up to 48 hrs by immunoblotting analysis; assay type: cell-based; conditions: time hrs <=48, TDE = time-dependent effect
[23] = Toxicity in zebrafish embryo assessed as effect on respiration at 25 to 100 uM measured 48 hrs post fertilization; set-up: species or system Danio rerio; conditions: in vivo, dose 25-100 µM
HEK293 = assay: Cytotoxicity against HEK293 cells assessed as reduction in cell viability at up to 400 uM measured after 72 hrs by CCK8 assay; assay type: cell-based; conditions: human, hek293, 72 h
Danio rerio [24] = species: Danio rerio; assay: Inhibition of melanin production in zebra fish assessed reduction in melanin level in eyes at 25 to 100 uM measured 48 hrs post fertilization relative to 100 uM kojic acid; assay type: functional; conditions: dose 25-100 µM
[25] = biological target: T1, Protein cereblon/Tyrosinase (Homo sapiens); assay: Protac activity at CRBN E3 ubiquitin ligase/tyrosinase in human A-375 cells assessed as induction of tyrosinase degradation measured after 24 hrs by immunoblotting analysis; assay type: cell-based
A-375 [26] = assay: Inhibition of melanin production in human A-375 cells assessed depigmentation ability at 0 to 100 uM measured after 24 hrs by UV-visible absorption spectrophotometric method relative to 100 uM L-Dopa; assay type: functional; conditions: dose 0-100 µM
[27] = biological target: T1, Protein cereblon/Tyrosinase (Homo sapiens); assay: Protac activity at CRBN E3 ubiquitin ligase/tyrosinase in human A-375 cells assessed as induction of tyrosinase degradation by measuring maximum degradation at 100 uM measured after 24 hrs by immunoblotting analysis relative to control; assay type: cell-based
A-375 [28] = assay: Inhibition of melanin production in human A-375 cells assessed depigmentation ability at 0 to 100 uM measured after 24 hrs by UV-visible absorption spectrophotometric method relative to 100 uM kojic acid; assay type: functional; conditions: dose 0-100 µM
[29] = Cytotoxicity against human A-375 cells assessed as reduction in cell viability measured after 72 hrs by CCK8 assay; assay type: cell-based
Danio rerio [30] = species: Danio rerio; assay: Inhibition of melanin production in zebra fish assessed depigmentation effect at 100 uM measured 96 hrs post fertilization; assay type: functional, organism-based

O=C(CCc1ccc(O)c(O)c1)NCCCCCNc1cccc2c1C(=O)N(C1CCC(=O)NC1=O)C2=O (configuration not stated)
Activity [1]: inactive

N[C@@H](Cc1ccc(O)c(O)c1)C(=O)O [LEVODOPA]
inhibition (Danio rerio [2]): inactive
Kd (Mushroom tyrosinase): 19 µM
inhibition (A-375 [3]): Active
Activity [4]: inactive
inhibition (Danio rerio [5]): inactive
inhibition (Danio rerio [6]): inactive
inhibition (Danio rerio [7]): inactive

CN1C(=O)CCC(N2C(=O)c3cccc(NCCCCCNC(=O)[C@@H](N)Cc4ccc(O)c(O)c4)c3C2=O)C1=O (some centres not stated)
Activity [1]: inactive

O=C1CCC(N2C(=O)c3cccc(NCCCCCCCC(=O)OCc4cc(=O)c(O)co4)c3C2=O)C(=O)N1 (configuration not stated)
Activity [4]: inactive

N[C@@H](Cc1ccc(O)c(O)c1)C(=O)NCCOCCOCCNc1cccc2c1C(=O)N(C1CCC(=O)NC1=O)C2=O (some centres not stated)
Activity [8]: 7%

N[C@@H](Cc1ccc(O)c(O)c1)C(=O)NCCNc1cccc2c1C(=O)N(C1CCC(=O)NC1=O)C2=O (some centres not stated)
Activity [8]: 14%

N[C@@H](Cc1ccc(O)c(O)c1)C(=O)NCCCCCCCCCCNc1cccc2c1C(=O)N(C1CCC(=O)NC1=O)C2=O (some centres not stated)
Activity [8]: 37%

N[C@@H](Cc1ccc(O)c(O)c1)C(=O)NCCCCCCNc1cccc2c1C(=O)N(C1CCC(=O)NC1=O)C2=O (some centres not stated)
Activity [9]: inactive
Activity [10]: inactive
Activity [11]: inactive
Activity [8]: > 25%

O=c1oc2c(O)c(O)cc3c(=O)oc4c(O)c(O)cc1c4c23 [ELLAGIC ACID]
solubility [12]: 9.7 µg/mL (≈ 32.1 µM)

O=C1CCC(N2C(=O)c3cccc(NCCCCCCCCC(=O)OCc4cc(=O)c(O)co4)c3C2=O)C(=O)N1 (configuration not stated)
Activity [4]: inactive

N[C@@H](Cc1ccc(O)c(O)c1)C(=O)NCCCCNc1cccc2c1C(=O)N(C1CCC(=O)NC1=O)C2=O (some centres not stated)
Activity [8]: 19%

N[C@@H](Cc1ccc(O)c(O)c1)C(=O)NCCCCCNc1cccc2c1C(=O)N(C1CCC(=O)NC1=O)C2=O (some centres not stated)
IC50 (Tyrosinase): 113 µM
Activity [13]: inactive
inhibition (Danio rerio [2]): Active
Activity [4]: Active
Activity [9]: inactive
inhibition (Danio rerio [5]): Active
fold change (FC) (Danio rerio [14]): 5.1
Activity [10]: inactive
Activity (A-375 [15]): Non-Toxic
Activity [16]: Non-Toxic
logP [17]: -0.65
Activity (Danio rerio [18]): 81%
Activity [19]: inactive
CC50 at 72 h [20]: > 700 µM
inhibition (Danio rerio [6]): Active
Activity [11]: inactive
inhibition (A-375 [21]): Dose-Dependent Effect
Activity [22]: Tde
Activity [8]: 46%
Activity [23]: Non-Toxic
Activity (HEK293): Non-Toxic
fold change (FC) (Danio rerio [24]): 3.3
Activity [25]: Dose-Dependent Effect
fold change (FC) (A-375 [26]): 1.7
inhibition (Danio rerio [7]): Active
%max [27]: 61%
fold change (FC) (A-375 [28]): 1.4
CC50 at 72 h [29]: > 700 µM
solubility [12]: 11400 µg/mL (≈ 21200 µM)

N[C@@H](Cc1cccc(O)c1)C(=O)NCCCCCNc1cccc2c1C(=O)N(C1CCC(=O)NC1=O)C2=O (some centres not stated)
Activity [1]: inactive

O=c1cc(CO)occ1O [KOJIC ACID]
inhibition (Danio rerio [2]): inactive
inhibition (A-375 [3]): Active
inhibition (Danio rerio [5]): inactive
inhibition (Danio rerio [6]): inactive
Activity (Danio rerio [30]): Active
inhibition (Danio rerio [7]): inactive
solubility [12]: 55 µg/mL (≈ 387 µM)

N[C@@H](Cc1ccc(O)c(O)c1)C(=O)NCCCCCCCCNc1cccc2c1C(=O)N(C1CCC(=O)NC1=O)C2=O (some centres not stated)
Activity [4]: Active
Activity [8]: 38%

O=C1CCC(N2C(=O)c3ccccc3C2=O)C(=O)N1 (configuration not stated)
Activity [4]: inactive

N[C@@H](Cc1ccc(O)cc1)C(=O)NCCCCCNc1cccc2c1C(=O)N(C1CCC(=O)NC1=O)C2=O (some centres not stated)
Activity [1]: inactive

N[C@@H](Cc1ccc(O)c(O)c1)C(=O)NCCCNc1cccc2c1C(=O)N(C1CCC(=O)NC1=O)C2=O (some centres not stated)
Activity [8]: 25%

O=C1CCC(N2C(=O)c3cccc(NCCCCCCCCCCC(=O)OCc4cc(=O)c(O)co4)c3C2=O)C(=O)N1 (configuration not stated)
Activity [4]: inactive

N[C@@H](Cc1ccc(O)c(O)c1)C(=O)NCCOCCNc1cccc2c1C(=O)N(C1CCC(=O)NC1=O)C2=O (some centres not stated)
Activity [8]: 7%

O=C1CCC(N2C(=O)c3cccc(NCCCCCC(=O)OCc4cc(=O)c(O)co4)c3C2=O)C(=O)N1 (configuration not stated)
Activity [4]: inactive

N[C@@H](Cc1ccccc1)C(=O)NCCCCCNc1cccc2c1C(=O)N(C1CCC(=O)NC1=O)C2=O (some centres not stated)
Activity [1]: inactive

N[C@@H](Cc1ccc(O)c(O)c1)C(=O)NCCCCCCCNc1cccc2c1C(=O)N(C1CCC(=O)NC1=O)C2=O (some centres not stated)
Activity [8]: 37%
